Laboratory results: ChEMBL document CHEMBL3507680, “University of Dundee, Gates Library screen for HepG2 cell viability”

assay: Human HepG2 cell viability assay in 384 well format; format: toxicity, cell-based; parameters: dose 125 nL, time 70.5 hour; cytotoxicity at 70.5 h: concentration not given beside the values; settings: HepG2 cells, read-out: Inhibition

| SMILES | cytotoxicity at 70.5 h [%] |
| --- | --- |
| CC(c1cccnc1)N(C)Cc1ccccn1 (configuration not stated) | -7.62 |
| CN(C)c1ccc(C2CCN(c3cnccn3)CC2)nc1 | 6.87 |
| CC(NC(=O)N(C)Cc1ccc2c(c1)OCCO2)c1nncn1C (configuration not stated) | -0.921 |
| Cc1cc(CN(C)Cc2ccccc2N2CCCCC2)n[nH]1 | 1.54 |
| Cc1cc(NCCN2CCNC2=O)nc2cc3c(cc12)CCC3 | -4.19 |
| COCCN1CCN(C(C)c2nc(C3CC3)no2)CC1 (configuration not stated) | 17 |
| CCN(C)c1ncnc2c1CCN(c1ccc(C)nn1)CC2 | -2.59 |
| Cc1ccc(S(=O)(=O)c2ncccc2CN2CCOCC2)cc1 | -17.9 |
| O=C(NCCN1CCOCC1)c1scnc1Cl | -15.1 |
| Cc1nc2ccc(C(=O)N3CCn4c(nnc4C4CC4)C3)cc2nc1C | -4.74 |
| COCc1ncn2c1CN(S(=O)(=O)c1ccc(C)cc1)CC2 | -0.994 |
| Cc1cnn(CCNCC(=O)NC2(C#N)CCCC2)c1 | -0.423 |
| COC(=O)CNC(=O)c1cc(-c2ccccc2)nc2ncnn12 | -0.256 |
| O=C(NCC(F)(F)F)C1CSCN1S(=O)(=O)c1ccccc1F (configuration not stated) | 26 |
| Cn1ccnc1C1CCN(S(=O)(=O)c2ccc3c(c2)OCCO3)CC1 | 9.02 |
| Cc1nc(CCC(=O)N2Cc3cnc(-c4ccccc4)nc3C2)n[nH]1 | -14.8 |
| CC1CCN(S(=O)(=O)N2Cc3ccccc3C[C@H]2C(N)=O)CC1 | -4.51 |
| COc1cccc(CN2CC(O)CN(C(=O)C3CCC3)CC2=O)c1OC (configuration not stated) | -4.14 |
| N#Cc1cc2c(=O)n(CC(O)c3cccc(O)c3)ccc2[nH]c1=O (configuration not stated) | -6.53 |
| Cc1nc(NC2CCN(C(=O)C3CC3)CC2)c2cnn(C)c2n1 | -11.5 |
| CC(C)=CCN1CC2(CCN(Cc3c(F)cccc3F)CC2)CC1=O | 23.4 |
| CCc1nc(CN2CCCN(C(=O)c3cc(C)on3)CC2)cs1 | -1.87 |
| C[C@H]1C[C@@H]2CCN(C(=O)c3cccn3C)C[C@H]2O1 | -12.7 |

| SMILES | cytotoxicity at 70.5 h [%] |
| --- | --- |
| CN(CC(O)C(F)(F)F)C(=O)Nc1cccc(N2CCCC2)c1 (configuration not stated) | -3.73 |
| NC(=O)N1CC[C@@H]2O[C@H](COCC(=O)N3CCCC3)CC[C@@H]21 | -0.223 |
| Nc1ncnc2nc(C3CCN(C(=O)Cc4ccccc4)C3)ccc12 (configuration not stated) | 13.4 |
| COCCCNC(=O)Cc1cc(-c2ccccc2)on1 | -0.233 |
| COCC(C)N(C)C(=O)CCc1c(C)nc2c(C#N)cnn2c1C (configuration not stated) | 3.69 |
| CCc1nccn1CCNC1CCN(c2nc3ccc(Cl)cc3s2)CC1 | 40.5 |
| CN1[C@@H](C(=O)NCC2CC2)C[C@@H]2CN(c3ncccn3)C[C@@H]21 | -3.13 |
| CCc1ncc(C(=O)c2ccc(OC)cc2)n1C | 17.9 |
| Cc1ccc(-c2cc(N)c(=O)n(CC(=O)NCC3CC3)n2)s1 | -23.3 |
| COc1cccc(N2CCN(Cc3cc(C)cc(F)c3)CC2=O)c1 | -3.94 |
| CCn1nc(C)cc1C(=O)N1C[C@@H]2C[C@@H](c3nnc(C)[nH]3)O[C@@H]2C1 | -12.7 |
| Cc1ccc(C(=O)N2C[C@H]3CNC[C@H]3C2)cn1 | 25.5 |
| Cc1ccc(CN2C[C@@H](OCc3ccccn3)[C@H]3COC[C@H]32)o1 | -5 |
| CCN(CC)CCn1cc(NC2CCN(C(C)(C)C)CC2)cn1 | 5.68 |
| COc1ccc(OCc2nccc(-c3cc(C(=O)O)ccn3)n2)cc1 | -2.16 |
| CCc1c(O)n(C(C)CC)c(SCC(=O)c2ccccc2)nc1=O (configuration not stated) | -8.65 |
| CN(C)CCN(C)S(=O)(=O)CC1CCOCC1 | -7.41 |
| COCc1ncc(-c2nccn2CCN(C)C)cn1 | -2.63 |
| CN(C)Cc1ccccc1NC(=O)c1ccc(C#N)cc1 | -7.54 |
| CCn1cc(-c2cc(C(F)F)nc3sc(C(N)=O)c(N)c23)c(C)n1 | -3.39 |
| Cc1cc(C(=O)NC2(C#N)CCSCC2)n(C)n1 | -5.82 |
| CCC(=O)CNC(=O)CCn1nc2ccccn2c1=O | -1.88 |
| Cc1ccc(C2(C(=O)NCCCn3cccn3)CCOCC2)cc1 | 14.4 |

| SMILES | cytotoxicity at 70.5 h [%] |
| --- | --- |
| CCN1C(=O)CC(c2cnn(C)c2)C12CCN(C(=O)c1ccoc1)CC2 (configuration not stated) | -0.434 |
| CC(C)[C@@H]1CN(C(=O)CCc2ccc(F)cc2)C[C@H]1C(=O)O | 28.6 |
| C1CCC(NCCN2CCOCC2)C1 | 16.9 |
| Cn1cc(CN2CCCn3cnc(CN4CCCC4=O)c3C2)cn1 | -17.3 |
| Cc1noc(C)c1CCC(=O)Nc1ccn(C)n1 | 1.75 |
| CN1CCC(N(C)C(=O)c2cnn(-c3ccccc3Br)c2N)CC1 | 0.0189 |
| CC(Cn1ccnc1)NC(=O)N1CCN(Cc2cccnc2)CC1 (configuration not stated) | 0.583 |
| CC(C)OCCN1CCC(Nc2ncccn2)CC1 | 0.193 |
| O=C(NCCOc1ccc(Cl)cn1)Nc1nccs1 | 11 |
| Cn1cccc1C(=O)NCc1cn2c(n1)CN(C(=O)c1ccsc1)CC2 | -8.13 |
| Cc1nn(C)cc1-c1ccnc(N2CCN(c3ccccc3)C(=O)C2)n1 | -3.19 |
| CNC(=O)CN1CCN(C(=O)c2ccn(C)c(=O)c2)CC1 | 31.2 |
| O=C(O)c1cnc(N2CCCC2)nc1COc1ccc(F)cc1 | -21.1 |
| Cc1cc(CN2CC[C@H]3C[C@@H](c4nc(C5CC5)cs4)O[C@@H]3C2)no1 | -2.95 |
| CCOc1ccc(N2CCCN=C2NC(=O)c2cccc(OC)c2)cc1 | 2.56 |
| O=C(c1ccc(-n2cnnc2)cc1)N1CCC(Nc2cccnn2)CC1 | -15.6 |
| Cc1cc(C)nc(N2CCC(C(=O)Nc3n[nH]c(C(C)C)n3)CC2)n1 | -11.5 |
| Cc1cc(N2CCc3cnc(C)nc3C2)n2nc(C(F)(F)F)nc2n1 | -108 |
| Cc1occc1C(=O)NCC(=O)N1CCCC(c2ccccc2)CC1 (configuration not stated) | -3.67 |
| Cn1cc(C(=O)N2CCN(Cc3ccccn3)CC2)ccc1=O | 19.1 |
| Cc1oncc1C(=O)N1CC2CC1(C(=O)NCc1ccco1)C2 | -10.9 |
| CC(C)(C)n1nc(C(=O)NCC2(C(N)=O)CCOCC2)cc1C1CC1 | -22.5 |
| O=S(=O)(c1cc(F)cc(F)c1)N1CCC(Oc2ccc(Cl)cn2)CC1 | 2 |

| SMILES | cytotoxicity at 70.5 h [%] |
| --- | --- |
| CC(NCCc1nccn1Cc1ccccc1)c1ccsc1 (configuration not stated) | -10.7 |
| CN1CCN(c2cc(NC(=O)Cn3ccc4ccccc43)ncn2)CC1 | 1.47 |
| CN(C)C1CCN(C(=O)C2SCCc3ccccc32)CC1 (configuration not stated) | -6.27 |
| CC(C(=O)Nc1cccc(Cl)c1SC(F)F)S(C)(=O)=O (configuration not stated) | -3.11 |
| O=C(c1ccc(OCC2CC2)cc1)N1CCOCC1c1ncon1 (configuration not stated) | 1.72 |
| CN(C)[C@@H]1CO[C@H](CNC(=O)Nc2ccccc2)[C@H]1O | -1.04 |
| CCNC(=O)CNC(=O)Nc1cccc(Cl)c1SC(F)F | 0.0144 |
| O=C(NCc1ccncc1)N1CC(Cc2ccccc2F)C1 | -5.27 |
| O=C(C(c1ccccc1)S(=O)(=O)c1ccccc1)N1CCCCC1 (configuration not stated) | 3.14 |
| COc1cc(CNCC(O)c2ccccc2)cc2c1OCO2 (configuration not stated) | 3.15 |
| O=C(c1ncccn1)N1C[C@@H]2CC[C@H](Oc3cccc(F)c3)[C@@H]2C1 | -6.95 |
| COc1ccc(CN(C)[C@@H]2CN(C(=O)c3ccccc3)C[C@H]2O)cc1 | -2.29 |
| CC(C(=O)NCc1ccnc(N(C)C)c1)n1cncn1 (configuration not stated) | -10.2 |
| COCCNC(=O)[C@H]1C[C@@H]2CCN(c3ccccc3)C[C@H]2O1 | -9.93 |
| O=C(c1ccco1)N1CCN2C[C@H](Oc3cncnc3)C[C@H]2C1 | 12.4 |
| CC(C)c1noc(CCCC(=O)N2CCN(S(C)(=O)=O)CC2)n1 | -5.72 |
| COCc1ccc(C(=O)N2CCC(c3nccn3CC3CC3)CC2)o1 | -0.956 |
| Fc1ccc(CN2CCCC2c2cncc(-n3ccnc3)n2)cc1 (configuration not stated) | -1.28 |
| Cc1ncsc1C(=O)N(C)Cc1ccccc1 | -4.43 |
| O=C(c1cccnc1O)N(CCO)Cc1cc(Br)ccc1F | -9.73 |
| O=C(NC1CC(=O)N(Cc2cccc(F)c2)C1)c1ccncc1 (configuration not stated) | -8.7 |
| CCS(=O)(=O)N1Cc2nccn2CC(Cn2cncn2)C1 (configuration not stated) | 0.16 |
| COc1ccc(NC2CCCN(Cc3cnc(N(C)C)s3)C2)cc1OC (configuration not stated) | -12 |

| SMILES | cytotoxicity at 70.5 h [%] |
| --- | --- |
| CN(Cc1cc(C(C)(C)C)n[nH]1)C(=O)CCC(=O)NC1CCCC1 | -9.2 |
| CCC(NCc1ncc[nH]1)c1nc(C(F)(F)F)cs1 (configuration not stated) | -4.3 |
| Cn1ccc(-c2cc(C(=O)N3CCC(C(N)=O)CC3)c3ccccn23)n1 | -8.35 |
| CNC(=O)C1(c2cnccn2)CCCN1C(=O)c1ccccc1C (configuration not stated) | 15.3 |
| Cc1cnc(N2CCCn3c(nnc3Cn3cccn3)C2)nc1 | 10.6 |
| Nc1nc(CN2CCOC(Cn3cccn3)C2)nc2ccccc12 (configuration not stated) | -11.8 |
| CC(C)(C)NS(=O)(=O)c1ccccc1CNCc1cccc(O)c1 | 3.89 |
| CCN1CC(C(=O)N2CCN(c3cnn(C)c(=O)c3)CC2)CCC1=O (configuration not stated) | -9.64 |
| CN(C)Cc1cccc(C(=O)N2CCCC(n3cncn3)C2)c1 (configuration not stated) | -12.1 |
| Cc1cc2n(n1)CC(CNCc1ccccc1-n1cccn1)CN2 (configuration not stated) | -4.8 |
| Cc1cnc(CN(C)C2CCN(CC(=O)Nc3nncs3)C2)o1 (configuration not stated) | 17.3 |
| O=C(Cc1csc(-c2cccc(Cl)c2)n1)NCc1cccc(C(=O)O)c1 | -14.3 |
| N#Cc1cccnc1Oc1cc(F)c(CN2CCCC2)c(Cl)c1 | -1.54 |
| Cc1ccc(C2(O)CCN(C(=O)c3ccc(S(N)(=O)=O)cc3)CC2)nc1 | -12.2 |
| CN(C)CC1(O)CCCN(Cc2ccccc2OCC(=O)N(C)C)C1 (configuration not stated) | 2.4 |
| Cc1noc(C)c1CC(=O)NCC(C)N1CCOCC1 (configuration not stated) | -2.99 |
| CC(C)c1noc(C(C)N2CCN(Cc3nnc(C4CC4)o3)CC2)n1 (configuration not stated) | -3.65 |
| CN(Cc1cccs1)S(=O)(=O)c1ccc(C(F)(F)F)nc1 | -20.9 |
| Fc1ccc(CN2C[C@@H](OCc3ccccn3)[C@H]3COC[C@H]32)cc1 | -1.1 |
| O=S1(=O)CCCN1Cc1coc(-c2ccc(C(F)(F)F)cc2)n1 | 11 |
